Laboratory results published in ChEMBL document CHEMBL3286363, “Benzo[d]isothiazole 1,1-dioxide derivatives as dual functional inhibitors of 5-lipoxygenase and microsomal prostaglandin E(2) synthase-1” (Bioorg Med Chem Lett, 2014).

Legend:
[1] = biological target: T1, Polyunsaturated fatty acid 5-lipoxygenase (Homo sapiens, UniProt P09917); test: Inhibition of human 5-LOX using arachidonic acid as substrate measured as H2DCFDA conversion to 2',7'-dichlorofluorescein preincubated for 10 mins by fluorescence spectrophotometric analysis
T1 sequence (P09917 whole entry): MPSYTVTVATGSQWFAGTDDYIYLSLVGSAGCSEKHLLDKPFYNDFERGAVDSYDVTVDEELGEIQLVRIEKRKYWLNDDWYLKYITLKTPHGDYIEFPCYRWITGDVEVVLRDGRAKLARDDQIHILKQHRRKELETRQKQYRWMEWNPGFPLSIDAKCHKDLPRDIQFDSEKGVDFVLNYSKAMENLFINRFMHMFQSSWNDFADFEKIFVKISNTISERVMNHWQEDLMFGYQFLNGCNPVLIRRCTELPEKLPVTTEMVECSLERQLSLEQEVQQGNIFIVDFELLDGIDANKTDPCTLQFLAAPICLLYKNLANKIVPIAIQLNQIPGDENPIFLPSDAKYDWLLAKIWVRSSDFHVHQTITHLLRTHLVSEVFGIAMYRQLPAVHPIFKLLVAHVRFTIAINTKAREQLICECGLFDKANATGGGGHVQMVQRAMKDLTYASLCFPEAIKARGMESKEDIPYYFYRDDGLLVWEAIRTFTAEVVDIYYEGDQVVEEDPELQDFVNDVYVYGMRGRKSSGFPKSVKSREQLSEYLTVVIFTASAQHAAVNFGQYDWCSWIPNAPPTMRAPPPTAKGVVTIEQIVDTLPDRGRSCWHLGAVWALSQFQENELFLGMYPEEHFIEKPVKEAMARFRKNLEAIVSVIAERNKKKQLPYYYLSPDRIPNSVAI

Prostaglandin E synthase = biological target: T2, Prostaglandin E synthase (Homo sapiens, UniProt O14684); test: Inhibition of microsomal PGES-1 (unknown origin) assessed as PGH2 conversion to PGE2 after 1 min by enzyme immunoassay
T2 sequence (O14684 whole entry): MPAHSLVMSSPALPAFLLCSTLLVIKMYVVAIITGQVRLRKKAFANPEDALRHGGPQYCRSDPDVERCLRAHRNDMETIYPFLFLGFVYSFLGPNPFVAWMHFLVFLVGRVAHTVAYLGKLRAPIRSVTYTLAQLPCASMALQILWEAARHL

O=[N+]([O-])c1ccc2c(c1)S(=O)(=O)N=C2Nc1cccc(Br)c1
IC50 [1]: 3.4 µM | IC50 (Prostaglandin E synthase): 7.3 µM

O=[N+]([O-])c1ccc2c(c1)S(=O)(=O)N=C2Nc1ccccc1
IC50 [1]: 8.6 µM | IC50 (Prostaglandin E synthase): 23.6 µM

CC(C)(C)c1cccc(NC2=NS(=O)(=O)c3cc([N+](=O)[O-])ccc32)c1
IC50 [1]: 0.06 µM | IC50 (Prostaglandin E synthase): > 50 µM

O=[N+]([O-])c1ccc2c(c1)S(=O)(=O)N=C2Nc1cccc(Cl)c1
IC50 [1]: > 50 µM | IC50 (Prostaglandin E synthase): 5.7 µM

CC(C)c1cccc(NC2=NS(=O)(=O)c3cc([N+](=O)[O-])ccc32)c1
IC50 [1]: 0.25 µM | IC50 (Prostaglandin E synthase): > 50 µM

COc1ccc(NC2=NS(=O)(=O)c3cc([N+](=O)[O-])ccc32)cc1
IC50 [1]: 12.3 µM | IC50 (Prostaglandin E synthase): 16.9 µM

O=[N+]([O-])c1ccc2c(c1)S(=O)(=O)N=C2Nc1cccc2ncccc12
IC50 [1]: > 50 µM | IC50 (Prostaglandin E synthase): 0.15 µM

COc1cccc(NC2=NS(=O)(=O)c3cc([N+](=O)[O-])ccc32)c1
IC50 [1]: 0.24 µM | IC50 (Prostaglandin E synthase): 8.8 µM

O=[N+]([O-])c1ccc2c(c1)S(=O)(=O)N=C2Nc1cccc2c(Br)cccc12
IC50 [1]: > 50 µM | IC50 (Prostaglandin E synthase): > 50 µM

O=[N+]([O-])c1ccc2c(c1)S(=O)(=O)N=C2Nc1cccc(-c2ccccc2)c1
IC50 [1]: 0.7 µM | IC50 (Prostaglandin E synthase): > 50 µM

O=[N+]([O-])c1ccc2c(c1)S(=O)(=O)N=C2Nc1cccc2c1OCO2
IC50 [1]: 14.9 µM | IC50 (Prostaglandin E synthase): > 50 µM

Cc1ccccc1NC1=NS(=O)(=O)c2cc([N+](=O)[O-])ccc21
IC50 [1]: > 50 µM | IC50 (Prostaglandin E synthase): > 50 µM

COc1ccc(NC2=NS(=O)(=O)c3cc([N+](=O)[O-])ccc32)cc1OC
IC50 [1]: 23.5 µM | IC50 (Prostaglandin E synthase): > 50 µM

O=[N+]([O-])c1ccc2c(c1)S(=O)(=O)N=C2NCc1cccc(Br)c1
IC50 [1]: > 50 µM | IC50 (Prostaglandin E synthase): > 50 µM

O=[N+]([O-])c1ccc2c(c1)S(=O)(=O)N=C2Nc1cccc2ccccc12
IC50 [1]: 0.6 µM | IC50 (Prostaglandin E synthase): 2.1 µM
